Assay results published in ChEMBL document CHEMBL1140800, “Identification of 2-amino-5-(thioaryl)thiazoles as inhibitors of nerve growth factor receptor TrkA” (Bioorg Med Chem Lett, 2008).
One block for each compound: values may come before it.

Key:
[1] = target: High affinity nerve growth factor receptor (Homo sapiens, UniProt P04629); assay: Inhibition of TrkA
[2] = Antiproliferative activity against rat RKE cells expressing CD8-TrkA after 3 days; type: functional, cell-based; settings: 72 h
[3] = Antiproliferative activity against TrkA deficient rat RK3E cells after 3 days; type: functional, cell-based; settings: 72 h
SH-SY5Y = assay: Antiproliferative activity against human SH-SY5Y cells after 3 days; type: functional, cell-based; settings: 72 h
[4] = Inhibition of VEGFR at 2 uM
[5] = target: Insulin-like growth factor 1 receptor (Homo sapiens, UniProt P08069); assay: Inhibition of IGF1R
Insulin-like growth factor 1 receptor, sequence (P08069 31-736 limits assumed): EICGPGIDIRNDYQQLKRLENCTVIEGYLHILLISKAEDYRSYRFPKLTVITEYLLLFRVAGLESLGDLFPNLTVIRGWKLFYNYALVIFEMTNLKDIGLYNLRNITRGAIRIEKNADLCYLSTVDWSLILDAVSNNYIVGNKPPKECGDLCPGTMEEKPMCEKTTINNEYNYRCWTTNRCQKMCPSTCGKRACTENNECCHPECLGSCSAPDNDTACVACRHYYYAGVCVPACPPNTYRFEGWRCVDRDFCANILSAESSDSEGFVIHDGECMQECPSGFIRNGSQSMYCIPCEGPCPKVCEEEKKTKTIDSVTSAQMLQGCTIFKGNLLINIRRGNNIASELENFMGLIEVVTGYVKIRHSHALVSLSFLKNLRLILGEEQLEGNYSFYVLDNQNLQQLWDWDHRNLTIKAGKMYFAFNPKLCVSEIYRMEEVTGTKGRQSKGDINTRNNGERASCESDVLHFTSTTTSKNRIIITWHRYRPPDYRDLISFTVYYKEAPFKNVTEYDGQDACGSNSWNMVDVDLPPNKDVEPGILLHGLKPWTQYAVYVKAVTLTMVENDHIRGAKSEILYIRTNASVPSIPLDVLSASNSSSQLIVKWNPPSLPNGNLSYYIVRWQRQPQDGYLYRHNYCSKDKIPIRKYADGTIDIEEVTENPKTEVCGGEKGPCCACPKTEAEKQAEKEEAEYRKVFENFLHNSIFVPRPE
Insulin-like growth factor 1 receptor, sequence (P08069 741-1367 limits assumed): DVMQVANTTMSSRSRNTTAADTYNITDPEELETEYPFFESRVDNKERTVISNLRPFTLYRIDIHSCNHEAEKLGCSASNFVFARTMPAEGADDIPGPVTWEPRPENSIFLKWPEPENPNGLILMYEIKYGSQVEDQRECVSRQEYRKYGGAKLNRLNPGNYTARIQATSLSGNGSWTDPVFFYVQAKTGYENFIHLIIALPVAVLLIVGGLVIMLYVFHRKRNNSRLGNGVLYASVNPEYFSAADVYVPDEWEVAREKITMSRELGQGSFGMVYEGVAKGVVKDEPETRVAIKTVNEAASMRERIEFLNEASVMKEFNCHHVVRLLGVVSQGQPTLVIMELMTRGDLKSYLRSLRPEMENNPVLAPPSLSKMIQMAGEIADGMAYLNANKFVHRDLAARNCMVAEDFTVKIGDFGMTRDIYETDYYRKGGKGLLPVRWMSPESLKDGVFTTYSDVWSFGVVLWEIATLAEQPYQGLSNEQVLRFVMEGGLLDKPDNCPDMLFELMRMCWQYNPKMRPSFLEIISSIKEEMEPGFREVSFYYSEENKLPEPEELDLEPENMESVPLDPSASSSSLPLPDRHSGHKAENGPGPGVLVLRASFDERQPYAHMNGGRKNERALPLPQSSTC

[6] = target: Cyclin-dependent kinase 2 (Homo sapiens, UniProt P24941); assay: Inhibition of CDK2
[7] = target: Hepatocyte growth factor receptor (Homo sapiens, UniProt P08581); assay: Inhibition of Met
Hepatocyte growth factor receptor, sequence (P08581 whole entry): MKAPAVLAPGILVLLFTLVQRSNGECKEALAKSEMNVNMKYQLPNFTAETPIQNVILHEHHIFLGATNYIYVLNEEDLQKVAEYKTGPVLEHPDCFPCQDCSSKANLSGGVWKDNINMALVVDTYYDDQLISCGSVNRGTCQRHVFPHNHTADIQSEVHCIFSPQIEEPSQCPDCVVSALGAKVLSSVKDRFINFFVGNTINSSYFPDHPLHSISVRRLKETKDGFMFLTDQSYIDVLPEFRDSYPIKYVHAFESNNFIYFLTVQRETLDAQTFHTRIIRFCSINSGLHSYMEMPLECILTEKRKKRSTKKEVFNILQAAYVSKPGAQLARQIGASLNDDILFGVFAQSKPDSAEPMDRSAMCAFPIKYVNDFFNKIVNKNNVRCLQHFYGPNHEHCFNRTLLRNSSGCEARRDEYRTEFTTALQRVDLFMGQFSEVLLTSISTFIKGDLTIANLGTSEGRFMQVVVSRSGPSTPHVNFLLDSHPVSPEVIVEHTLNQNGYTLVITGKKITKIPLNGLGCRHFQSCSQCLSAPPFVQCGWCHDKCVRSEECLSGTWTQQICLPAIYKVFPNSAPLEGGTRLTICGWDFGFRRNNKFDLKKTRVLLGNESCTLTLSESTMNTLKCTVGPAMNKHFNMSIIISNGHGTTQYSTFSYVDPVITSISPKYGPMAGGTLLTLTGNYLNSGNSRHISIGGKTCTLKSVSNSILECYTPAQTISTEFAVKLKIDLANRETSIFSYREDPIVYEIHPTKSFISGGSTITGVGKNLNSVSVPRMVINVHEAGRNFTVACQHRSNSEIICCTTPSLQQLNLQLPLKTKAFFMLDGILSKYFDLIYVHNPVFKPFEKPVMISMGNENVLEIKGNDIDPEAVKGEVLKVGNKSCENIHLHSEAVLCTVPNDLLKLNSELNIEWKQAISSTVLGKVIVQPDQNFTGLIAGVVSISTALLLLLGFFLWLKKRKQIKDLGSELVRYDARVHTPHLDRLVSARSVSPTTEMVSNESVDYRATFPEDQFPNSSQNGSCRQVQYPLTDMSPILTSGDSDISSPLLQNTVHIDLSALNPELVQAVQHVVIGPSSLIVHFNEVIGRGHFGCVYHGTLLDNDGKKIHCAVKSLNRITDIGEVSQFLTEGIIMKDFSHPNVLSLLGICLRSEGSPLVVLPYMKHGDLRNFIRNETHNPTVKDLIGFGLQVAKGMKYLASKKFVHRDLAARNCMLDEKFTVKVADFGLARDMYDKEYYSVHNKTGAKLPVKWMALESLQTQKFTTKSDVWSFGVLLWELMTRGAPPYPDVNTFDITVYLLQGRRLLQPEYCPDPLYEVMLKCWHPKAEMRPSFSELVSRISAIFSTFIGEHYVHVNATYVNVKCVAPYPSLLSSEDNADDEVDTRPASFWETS

[8] = Inhibition of VEGFR

High affinity nerve growth factor receptor, sequence (P04629 whole entry): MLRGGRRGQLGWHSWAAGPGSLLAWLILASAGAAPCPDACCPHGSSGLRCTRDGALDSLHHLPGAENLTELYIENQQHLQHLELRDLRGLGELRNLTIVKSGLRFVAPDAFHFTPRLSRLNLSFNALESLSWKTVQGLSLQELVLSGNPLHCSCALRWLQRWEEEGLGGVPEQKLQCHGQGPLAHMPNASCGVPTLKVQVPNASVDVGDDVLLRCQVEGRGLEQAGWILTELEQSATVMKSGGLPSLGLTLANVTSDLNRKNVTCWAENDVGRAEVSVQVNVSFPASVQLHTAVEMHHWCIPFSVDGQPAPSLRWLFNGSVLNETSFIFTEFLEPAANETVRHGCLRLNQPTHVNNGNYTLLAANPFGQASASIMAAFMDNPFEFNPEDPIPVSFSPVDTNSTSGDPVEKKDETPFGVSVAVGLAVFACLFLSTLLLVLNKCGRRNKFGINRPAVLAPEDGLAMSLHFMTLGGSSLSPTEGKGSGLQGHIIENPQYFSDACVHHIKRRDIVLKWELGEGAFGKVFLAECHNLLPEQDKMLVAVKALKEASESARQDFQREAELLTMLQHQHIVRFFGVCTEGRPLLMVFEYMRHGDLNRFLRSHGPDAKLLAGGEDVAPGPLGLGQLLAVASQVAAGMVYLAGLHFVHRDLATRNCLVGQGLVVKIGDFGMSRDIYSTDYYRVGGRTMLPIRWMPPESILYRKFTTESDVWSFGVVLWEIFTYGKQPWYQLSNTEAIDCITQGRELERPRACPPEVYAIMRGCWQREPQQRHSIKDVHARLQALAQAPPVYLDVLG

Compound: CC(=O)N1CCN(C(=O)c2cc(Sc3cnc(N)s3)ccc2C)CC1
IC50 [1]: > 5000 nM

Compound: CC(=O)Nc1ncc(Sc2ccc(C)c(C(=O)N3CCN(C(C)=O)CC3)c2)s1
IC50 [1]: > 5000 nM

Compound: Cc1ccc(Sc2cnc(Nc3ccccn3)s2)cc1C(=O)N1CCN(S(C)(=O)=O)CC1
IC50 [1]: 910 nM

Compound: C#CCNC(=O)c1cc(Sc2cnc(Nc3ccccn3)s2)ccc1C
IC50 [1]: 1200 nM

Compound: CC(=O)NCCNC(=O)c1cc(Sc2cnc(Nc3ccccn3)s2)ccc1C
IC50 [1]: 320 nM

Compound: CC(=O)N1CCN(C(=O)c2cccc(Sc3cnc(Nc4ccc(Br)cn4)s3)c2)CC1
IC50 [1]: 520 nM

Compound: CC(=O)N1CCN(C(=O)c2cccc(Sc3cnc(Nc4ccccn4)s3)c2)CC1
IC50 [1]: 240 nM

Compound: CC(=O)N1CCN(Cc2cc(Sc3cnc(Nc4ccccn4)s3)ccc2C)CC1
IC50 [1]: 720 nM

Compound: CC(=O)N1CCN(C(=O)c2ccccc2Sc2cnc(Nc3cccc(Br)n3)s2)CC1
IC50 [1]: 1900 nM

Compound: Cc1ccc(Sc2cnc(Nc3ccccn3)s2)cc1C(=O)NCc1ccccc1
IC50 [1]: > 5000 nM

Compound: CC(=O)N1CCCN(C(=O)c2cc(Sc3cnc(Nc4ccccn4)s3)ccc2C)CC1
IC50 [1]: 1100 nM

Compound: CC(=O)N1CCN(C(=O)c2cccc(Sc3cnc(Nc4cccc(C)n4)s3)c2)CC1
IC50 [1]: 1100 nM

Compound: CCNC(=O)c1cc(Sc2cnc(Nc3ccccn3)s2)ccc1C
IC50 [2]: > 10000 nM
IC50 [3]: > 10 µM
IC50 (SH-SY5Y): > 10000 nM
IC50 [1]: > 5000 nM

Compound: Cc1ccc(Sc2cnc(Nc3ccccn3)s2)cc1C(=O)NC(C)C
IC50 [1]: 2000 nM

Compound: Cc1ccc(Sc2cnc(Nc3ccccn3)s2)cc1C(=O)NCCO
IC50 [1]: 760 nM

Compound: CC(=O)N1CCN(C(=O)c2ccc(Sc3cnc(Nc4cccc(Br)n4)s3)cc2)CC1
IC50 [1]: 1300 nM

Compound: Cc1ccc(Sc2cnc(Nc3ccccn3)s2)cc1C(N)=O
IC50 [1]: 790 nM

These reach a lower IC50 [1]. Values come first.

IC50 [1]: 230 nM
Compound: CCN1CCN(C(=O)c2cc(Sc3cnc(Nc4cccc(Br)n4)s3)ccc2C)CC1

IC50 [1]: 210 nM
Compound: COC(=O)N1CCN(C(=O)c2cc(Sc3cnc(Nc4ccccn4)s3)ccc2C)CC1

IC50 [1]: 190 nM
Compound: CNCCNC(=O)c1cc(Sc2cnc(Nc3ccccn3)s2)ccc1C

IC50 [1]: 160 nM
Compound: Cc1ccc(Sc2cnc(Nc3ccccn3)s2)cc1C(=O)N1CCNCC1

IC50 [1]: 150 nM
Compound: Cc1ccc(Sc2cnc(Nc3cccc(Br)n3)s2)cc1C(=O)N1CCN(CC(N)=O)CC1

IC50 [1]: 80 nM
Compound: CC(=O)N1CCN(C(=O)c2cc(Sc3cnc(Nc4ccccn4)s3)ccc2C)CC1

IC50 [1]: 67 nM
Compound: Cc1ccc(Sc2cnc(Nc3cccc(Br)n3)s2)cc1C(=O)NCCC#N

IC50 [1]: 65 nM
Compound: Cc1ccc(Sc2cnc(Nc3ccccn3)s2)cc1C(=O)NCCC#N

IC50 [1]: 60 nM
Compound: Cc1ccc(Sc2cnc(Nc3ccccn3)s2)cc1NC(=O)CC#N

IC50 [1]: 50 nM
Compound: CC(=O)N1CCN(C(=O)c2cccc(Sc3cnc(Nc4cccc(Br)n4)s3)c2)CC1

IC50 [1]: 44 nM
Compound: Cc1ccc(Sc2cnc(Nc3ccccn3)s2)cc1C(=O)NCC#N

inhibition [4]: 8%
IC50 [5]: > 1000 nM
IC50 [6]: 180 nM
IC50 (SH-SY5Y): 1660 nM
IC50 [1]: 31 nM
IC50 [7]: > 1000 nM
Compound: CNCCN(C)C(=O)c1cc(Sc2cnc(Nc3cccc(Br)n3)s2)ccc1C
IC50 [2]: 460 nM
IC50 [3]: 3.06 µM

IC50 [1]: 21 nM
Compound: CCC(=O)N1CCN(C(=O)c2cc(Sc3cnc(Nc4cccc(Br)n4)s3)ccc2C)CC1

IC50 (SH-SY5Y): 1170 nM
IC50 [1]: 10 nM
Compound: Cc1ccc(Sc2cnc(Nc3cccc(Br)n3)s2)cc1C(=O)N(C)CCC#N
IC50 [2]: 370 nM
IC50 [3]: 3.32 µM

IC50 (SH-SY5Y): 750 nM
IC50 [1]: 2 nM
Compound: Cc1ccc(Sc2cnc(Nc3cccc(Br)n3)s2)cc1C(=O)N(C)CC#N
IC50 [2]: 390 nM
IC50 [3]: 3 µM

IC50 [5]: 700 nM
IC50 [6]: 230 nM
IC50 (SH-SY5Y): 1780 nM
IC50 [1]: 1 nM
IC50 [7]: 170 nM
Compound: Cc1ccc(Sc2cnc(Nc3cccc(Br)n3)s2)cc1C(=O)N1CCN(C(=O)[C@@H](C)N)CC1
IC50 [2]: 230 nM
IC50 [3]: 3.61 µM

IC50 [5]: > 1000 nM
IC50 [6]: 490 nM
IC50 [8]: > 25 µM
IC50 (SH-SY5Y): 1140 nM
IC50 [1]: 1 nM
IC50 [7]: > 1000 nM
Compound: CC(=O)N1CCN(C(=O)c2cc(Sc3cnc(Nc4cccc(Br)n4)s3)ccc2C)CC1
IC50 [2]: 250 nM
IC50 [3]: 2.28 µM

IC50 [5]: 360 nM
IC50 [6]: 520 nM
IC50 (SH-SY5Y): 4260 nM
IC50 [1]: 1 nM
IC50 [7]: > 1000 nM
Compound: Cc1ccc(Sc2cnc(Nc3cccc(Br)n3)s2)cc1C(=O)N1CCN(C(=O)[C@H](C)N)CC1
IC50 [2]: 1150 nM
IC50 [3]: 3.52 µM

IC50 [5]: > 1000 nM
IC50 [6]: 540 nM
IC50 (SH-SY5Y): 3060 nM
IC50 [1]: 0.6 nM
IC50 [7]: 430 nM
Compound: Cc1ccc(Sc2cnc(Nc3cccc(Br)n3)s2)cc1C(=O)N1CCN(C(=O)CN)CC1
IC50 [2]: 550 nM
IC50 [3]: 4.08 µM
